Holding throughout (format): in vivo
Data set [1] relates to common cocklebur (Xanthium strumarium). Kind of data set: Test Example 2: foliar application in greenhouse pots, herbicidal activity. On the set-up: key: “0” means that there was no or little difference in the degree of germination or growth between the treated and the untreated tested plants at the time of examination; “10” means that the test plants died completely or their germination or growth was completely inhibited. The note with it: index 0 to 10, 10 days after application. As for the experimental part: (§1) The evaluation of phytotoxicity is as follows:
(§2) Plastic pots having a diameter of 11 cm and a depth of 8 cm were filled with upland soil, and seeded with common cocklebur (Xanthium strumarium) . The test plants were grown in a greenhouse for 5 days. After that, corn was further seeded in each of the above pots and the test plants were grown in the greenhouse for further 16 days. Emulsifiable concentrate comprising compound A or Comparative compound obtained by well mixing 5 parts of compound A or Comparative compound, 6 parts of Sorpol 3005X (produced by Toho Chemical Industry, Co., Ltd.) and 89 parts of xylene was diluted with prescribed amount of water, and the dilution was applied over the test plants uniformly using a small sprayer. The leaf stage of the corns grown for 16 days were 2-leaf stage. After the application, the test plants were grown in the greenhouse for 10 days and then, herbicidal activity and phytotoxicity to corn were examined.

The test system of data set [2] is corn. Kind of data set: Test Example 2: phytotoxicity to corn. Set-up: key: No harm: Phytotoxicity is hardly seen.; Slight phytotoxicity which does not affect the growth of corn is seen.; Light phytotoxicity and light growth inhibition of corn are seen.; Middle phytotoxicity and growth inhibition of corn are seen.; Serious phytotoxicity and serious growth inhibition of corn are seen. The settings on record: corn at 2-leaf stage, 10 days after application. Here is the method: as §1
(§3) No harm: Phytotoxicity is hardly seen.
(§4) Light: Light phytotoxicity and light growth inhibition of corn are seen.
(§5) Middle: Middle phytotoxicity and growth inhibition of corn are seen.
(§6) Serious: Serious phytotoxicity and serious growth inhibition of corn are seen.
as §2

Data set [3] deals with ivyleaf morningglory (Ipomoea hederacea). As to the kind of experiment: Test Example 1: foliar application in greenhouse pots, herbicidal activity. Set-up: key: “0” means that there was no or little difference in the degree of germination or growth between the treated and the untreated tested plants at the time of examination; “10” means that the test plants died completely or their germination or growth was completely inhibited. The settings on record: index 0 to 10, 10 days after application. As for the experimental part:
as §1
(§7) Plastic pots having a diameter of 11 cm and a depth of 8 cm were filled with upland soil, and seeded with common lambsquarters (Chenopodium album), ivyleaf morningglory (Ipomoea hederacea), velvetleaf (Abutilon theophrasti), and corn. The test plants were grown in a greenhouse for 7 days. After that, other corn was further seeded in each of the above pots and the test plants were grown in the greenhouse for further 19 days. Emulsifiable concentrate comprising compound A obtained by well mixing 5 parts of compound A, 6 parts of Sorpol 3005X (produced by Toho Chemical Industry, Co., Ltd.) and 89 parts of xylene was diluted with prescribed amount of water, and the dilution was applied over the test plants uniformly using a small sprayer. The leaf stage of the corns grown for 26 days and 19 days were 2-leaf stage and 1-leaf stage, respectively. After the application, the test plants were grown in the greenhouse for 10 days and then, herbicidal activity and phytotoxicity to corn were examined.

Data set [4] concerns velvetleaf (Abutilon theophrasti). Described as above. On the set-up: key: “0” means that there was no or little difference in the degree of germination or growth between the treated and the untreated tested plants at the time of examination; “10” means that the test plants died completely or their germination or growth was completely inhibited. The settings on record: index 0 to 10, 10 days after application. Here is the method: as §1, §7

The test system of data set [5] is common lambsquarters (Chenopodium album). The data set is described as above. Set-up: key: “0” means that there was no or little difference in the degree of germination or growth between the treated and the untreated tested plants at the time of examination; “10” means that the test plants died completely or their germination or growth was completely inhibited. The note with it: index 0 to 10, 10 days after application. Here is the method: as §1, §7

Data set [6] concerns corn. Kind of data set: Test Example 1: phytotoxicity to corn. Set-up: key: No harm: Phytotoxicity is hardly seen.; Slight phytotoxicity which does not affect the growth of corn is seen.; Light phytotoxicity and light growth inhibition of corn are seen.; Middle phytotoxicity and growth inhibition of corn are seen.; Serious phytotoxicity and serious growth inhibition of corn are seen. The settings on record: 10 days after application; for Phytotoxicity C1: corn at 1-leaf stage; for Phytotoxicity C2: corn at 2-leaf stage.
Source text: as §1, §3, §4, §5, §6, §7

Take `COC(=O)CSc1cc(-n2c(=O)cc(C(F)(F)F)n(C)c2=O)c(F)cc1Cl` [Comparative compound, reference compound]: the “Herbicidal activity Cocklebur” value in data set [1] (dosage 2.5 g/ha) is recorded as 8; in data set [1] (dosage 5 g/ha), 10; in data set [1] (dosage 10 g/ha), 10. For the same compound, the results for the Phytotoxicity corn entry in the data set with corn [2] (dosage 2.5 g/ha), in the data set on corn [2] (dosage 5 g/ha) and in the data set on corn [2] (dosage 10 g/ha) were “No harm”, “Slight” and “light”, respectively.

In the case of `COC(=O)C(C)Oc1cc(-n2c(=O)cc(C(F)(F)F)n(C)c2=O)c(F)cc1Cl` (stereo not drawn) [Compound A, methyl 2-[2-chloro-4-fluoro-5-{3-methyl-2,6-dioxo-4-(trifluoromethyl)-1,2,3,6-tetrahydropyrimidin-1-yl}phenoxy]propionate], the “Herbicidal activity Cocklebur” value in data set [1] (dosage 2.5 g/ha), in data set [1] (dosage 5 g/ha) and in data set [1] (dosage 10 g/ha) was 10 in each case. The “Herbicidal activity Mo” value in data set [3] (dosage 5 g/ha), in data set [3] (dosage 10 g/ha) and in data set [3] (dosage 20 g/ha) was 10 throughout. In addition, the “Herbicidal activity Ve” value in data set [4] (dosage 5 g/ha), in data set [4] (dosage 10 g/ha) and in data set [4] (dosage 20 g/ha) was 10 throughout. Moreover, the “Herbicidal activity La” value amounted to 9 in data set [5] (dosage 5 g/ha), 10 in data set [5] (dosage 10 g/ha) and 10 in data set [5] (dosage 20 g/ha). Also, the Phytotoxicity corn entry with corn [2] (dosage 2.5 g/ha), in the data set on corn [2] (dosage 5 g/ha) and in the data set on corn [2] (dosage 10 g/ha) was “No harm” in each case. Also, the “Phytotoxicity C1” value in the data set on corn [6] (dosage 5 g/ha) was “No harm”; in the data set on corn [6] (dosage 10 g/ha) it was “No harm”; in the data set on corn [6] (dosage 20 g/ha), “Slight”. The “Phytotoxicity C2” value in the data set with corn [6] (dosage 5 g/ha), in the data set on corn [6] (dosage 10 g/ha) and in the data set on corn [6] (dosage 20 g/ha) was “No harm” each time.

These data come from patent publication US6372691B1, “Method for controlling weeds” (Sumitomo Chemical Company, Limited, priority 1999, dated 2002).
